# Experimental data from patent publication US5434155A, “Quinoline derivative fumarates” (priority 1992, dated 1995).
# Read-outs that look alike come from different tables or passages of the source.
# Legend:
# [1] = tested on: Vincristine-resistant mouse leukemia cells, P388/VCR; experiment: Carcinostatic-effect-stimulating activity (IC50 of vincristine on vincristine-resistant cells); assay type: cell-based; conditions: 72 h, read-out: IC50 of vincristine
# Experimental: Carcinostatic-effect-stimulating activity
# Vincristine-resistant mouse leukemia cells, P388/VCR, were suspended at a concentration of 2×10^4 cells/ml in an RPMI-1640 medium solution containing […]. 2 ml of the cancer cell suspension per tube (12×75 mm) were inoculated and incubated at 37° C. in a 5% CO2 atmosphere. After 6 hours, vincristine and the compound No. 2 of Example 1-(c) at a concentration of 0.3, 1 or 3 microgram/ml and the incubation was continued at 37° C. under a 5% CO2 atmosphere for 72 hours. The cell culture was added to 9.5 ml of ISOTON II, the number of cells was counted using a call counter and then 50% growth inhibiting concentrations of vincristine IC50 (ng/ml) were calculated.
# [2] = Oral absorbability test in mice (drug concentration in plasma); design: species or system 7-Week-old female CDF1 mice; conditions: mouse, in vivo
# Experimental: 7-Week-old female CDF1 mice were fasted one night before the administration of the test drugs. The drugs were suspended in an aqueous 0.1% TWEEN 80 solution for administration and were forcefully administered in an amount of 100 mg/kg (for the compound No. 2 of Example 1-(c)) and 109 mg/kg (for the compound No. 4 of Comparative Example 1) so as to get the equivalent molarity using a probe for oral administration. Three animals were used for each test group. Blood samples were taken 4 times; 0.5, 1.0, 2.0 and 4.0 hours after the administration. Blood samples were taken by cardiocentesis under anesthesia with chloroform using a heparin-treated disposable injection syringe, Each blood was centrifuged at 4° C. at 6000 rpm for 10 minutes to obtain plasma. Drug concentrations in plasma were measured using HPLC and then calculated from a calibration curve for a standard sample, Results are shown in the following Tables.
# physchem = assay type: physicochemical; conditions: water
# Experimental: Solubility in water was measured according to the Pharmacopoeia Japan.
# [3] = Oral absorbability in dogs (drug concentration in plasma); assay type: in vivo, Male beagles (dog); conditions: dog
# Experimental: Male beagles for experimental use were fasted one night before the administration of the test drugs. The drugs were suspended in a 0.1% TWEEN 80--0.1M NaCl--50 mM phosphate buffer solution for administration. All the drugs were forcefully administered in an amount of 50 mg/kg using an oral probe for dogs. Three animals were used for each test group. Blood samples were taken 9 times; 0.25, 0.5, 1, 1.5, 2, 4, 6, 9 and 24 hours after the administration. Blood samples of 5 ml were taken at each sampling time using a heparin-treated disposable injection syringe. Each blood was centrifuged at 3000 rpm for 15 minutes to obtain plasma. Drug concentrations in plasma were measured using HPLC and then calculated from a calibration curve for a standard sample.
smiles,measurement,setting,value
"CC[C@]1(O)C[C@H]2CN(CCc3c([nH]c4ccccc34)[C@@](C(=O)OC)(c3cc4c(cc3OC)N(C=O)[C@H]3[C@@](O)(C(=O)OC)[C@H](OC(C)=O)[C@]5(CC)C=CCN6CC[C@]43[C@@H]65)C2)C1 [vincristine, reference compound]",IC50,[1],0.142 µg/mL
"O=C(C(c1ccccc1)c1ccccc1)N1CCN(CC(O)COc2cccc3ncccc23)CC1.O=C(O)CC(O)C(=O)O (stereo not drawn) [compound No. 4, 5-[3-{4-(2,2-diphenylacetyl)piperazin-1-yl)-2-hydroxypropoxy]quinoline malate]",concentration at 0.5 h,"[2]; female CDF1 mice, oral 109 mg/kg (equivalent molarity), 0.5 hr, read-out: Concentration in plasma, Average of 3 mice",14300 ng/mL
same,concentration at 1 h,"[2]; female CDF1 mice, oral 109 mg/kg (equivalent molarity), 1.0 hr, read-out: Concentration in plasma, Average of 3 mice",11400 ng/mL
same,concentration at 2 h,"[2]; female CDF1 mice, oral 109 mg/kg (equivalent molarity), 2.0 hr, read-out: Concentration in plasma, Average of 3 mice",11900 ng/mL
same,concentration at 4 h,"[2]; female CDF1 mice, oral 109 mg/kg (equivalent molarity), 4.0 hr, read-out: Concentration in plasma, Average of 3 mice",5990 ng/mL
"O=C(C(c1ccccc1)c1ccccc1)N1CCN(CC(O)COc2cccc3ncccc23)CC1 (stereo not drawn) [compound No. 1, 5-[3-{4-(2,2diphenylacetyl)piperazin-1-yl}-2-hydroxypropoxy]quinoline]",solubility,physchem,< 1000 µg/mL
same,concentration at 0.25 h,"[3]; in vivo, po, 50 mg/kg",2460 ng/mL
same,concentration at 0.5 h,"[3]; in vivo, po, 50 mg/kg",3370 ng/mL
same,concentration at 1 h,"[3]; in vivo, po, 50 mg/kg",4530 ng/mL
same,concentration at 1.5 h,"[3]; in vivo, po, 50 mg/kg",4350 ng/mL
same,concentration at 2 h,"[3]; in vivo, po, 50 mg/kg",4180 ng/mL
same,concentration at 4 h,"[3]; in vivo, po, 50 mg/kg",2430 ng/mL
same,concentration at 6 h,"[3]; in vivo, po, 50 mg/kg",1620 ng/mL
same,concentration at 9 h,"[3]; in vivo, po, 50 mg/kg",440 ng/mL
"O=C(C(c1ccccc1)c1ccccc1)N1CCN(CC(O)COc2cccc3ncccc23)CC1.O=C(O)/C=C/C(=O)O (stereo not drawn) [compound No. 2, 5-[3-{4-(2,2-diphenylacetyl)piperazin-1-yl}-2-hydroxypropoxy]quinoline fumarate]",solubility,physchem,1400 µg/mL
same,concentration at 0.5 h,"[3]; plasma, male beagles, oral 50 mg/kg, 0.5 hr, read-out: Concentration in plasma, Average",14700 ng/mL
same,concentration at 1 h,"[3]; plasma, male beagles, oral 50 mg/kg, 1 hr, read-out: Concentration in plasma, Average",13200 ng/mL
same,concentration at 1.5 h,"[3]; plasma, male beagles, oral 50 mg/kg, 1.5 hr, read-out: Concentration in plasma, Average",12700 ng/mL
same,concentration at 2 h,"[3]; plasma, male beagles, oral 50 mg/kg, 2 hr, read-out: Concentration in plasma, Average",10500 ng/mL
same,concentration at 4 h,"[3]; plasma, male beagles, oral 50 mg/kg, 4 hr, read-out: Concentration in plasma, Average",6760 ng/mL
same,concentration at 6 h,"[3]; plasma, male beagles, oral 50 mg/kg, 6 hr, read-out: Concentration in plasma, Average",3700 ng/mL
same,concentration at 9 h,"[3]; plasma, male beagles, oral 50 mg/kg, 9 hr, read-out: Concentration in plasma, Average",1210 ng/mL
same,concentration at 24 h,"[3]; plasma, male beagles, oral 50 mg/kg, 24 hr",30 ng/mL
same,concentration at 0.5 h,"[2]; po, 100 mg/kg",18000 ng/mL
same,concentration at 1 h,"[2]; po, 100 mg/kg",21800 ng/mL
same,concentration at 2 h,"[2]; po, 100 mg/kg",16000 ng/mL
same,concentration at 4 h,"[2]; po, 100 mg/kg",13700 ng/mL
same,IC50,[1]; vincristine with compound at 0.3 microgram/ml,0.0569 µg/mL
same,IC50,[1]; vincristine with compound at 1 microgram/ml,0.022 µg/mL
same,IC50,[1]; vincristine with compound at 3 microgram/ml,0.00412 µg/mL
